Data set [1] deals with T1, hCTLA-4 protein (Homo sapiens, UniProt P16410).
T1 sequence (P16410 36-223): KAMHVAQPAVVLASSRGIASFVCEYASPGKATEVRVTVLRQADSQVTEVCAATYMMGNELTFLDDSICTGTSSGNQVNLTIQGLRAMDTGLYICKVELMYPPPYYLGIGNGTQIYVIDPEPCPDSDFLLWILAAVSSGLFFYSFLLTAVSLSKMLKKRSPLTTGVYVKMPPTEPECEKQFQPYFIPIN
The data set is described as follows: MST affinity of CTLA-4 binding peptides to hCTLA-4 protein. The conditions noted are these: Monolith NT.115, Red-NHS647 dye-labelled protein, peptides from 400 μmol/L, 16 twofold dilutions, room temperature 5 min. As for the experimental part: The CTLA-4 binding peptides were first diluted to 400 μmol/L with MST buffer, and twofold serial dilutions were carried out to obtain 16 concentration gradients subsequently. Equal Red-NHS647 dye-labelled protein and peptide volumes were incubated at room temperature for 5 min, the mixture was loaded onto standard capillaries (NanoTemper Technologies GmhH), and immediately placed in an MST instrument for detection. The dissociation constant (Kd) was determined using the NanoTemper analysis software MO. Affinity Analysis v2.2.4.

Data set [2] deals with CT26 tumour. The data set is described as follows: CT26 tumour-bearing mice, peritumoral LC4. Format: in vivo. As for the experimental part: BALB/c mice were subcutaneously injected with 2 × 10^5 syngeneic CT26 cells to establish colorectal cancer xenograft model. The mice were divided into control group, LC4 (1 mg / kg) group and LC4 (4 mg / kg) group when the tumor grew to 40–80 mm.^3, peritumoral administration for 14 days. Statistical graph of A tumor volumes and B body weight of LC4 (1 mg / kg) group, LC4 (4 mg / kg) group and control group. Data are expressed as the mean ± SD (n = 5) and statistical significance between groups was determined by Student’s t test: *p < 0.05, ***p < 0.001
Fig. 6 The LC4 activation on T cells was determined in vivo. […] Data are expressed as the mean ± SD (n = 5) and statistical significance between groups was determined by Student’s t test: *p < 0.05, **p < 0.01, ***p < 0.001, ****p < 0.0001; ns = no significance TEXT PRINTED IN THE PICTURE: (A) LC4: Tumor CD3^+CD8^+(%): 6.86 (1mg/kg); Tumor CD3^+CD8^+(%): 19.3 (4mg/kg) | (B) LC4: Spleen CD8^+IFN-γ^+(%): 42.9 (1mg/kg); Spleen CD8^+IFN-γ^+(%): 42.5 (4mg/kg) | (C) LC4: Spleen CD4^+IFN-γ^+(%): 15.6 (1mg/kg); Spleen CD4^+IFN-γ^+(%): 14.2 (4mg/kg) | (D) LC4: DLN CD8^+IFN-γ^+(%): 45.8 (1mg/kg); DLN CD8^+IFN-γ^+(%): 56 (4mg/kg) | (E) LC4: DLN CD4^+IFN-γ^+(%): 2.31 (1mg/kg); DLN CD4^+IFN-γ^+(%): 2.83 (4mg/kg) DOUBTS OF THE COPYIST ABOUT THIS PICTURE: The gate numbers in the flow cytometry plots are printed without a measure or unit. […]

Data set [3] deals with T2, hCTLA-4 protein (human, UniProt P16410 36-161).
T2 construct: human CTLA-4 protein, soluble recombinant protein; The MST methods speak of a 'Red-NHS647 dye-labelled protein' without naming it; also called human CTLA-4 protein
T2 sequence (looked up): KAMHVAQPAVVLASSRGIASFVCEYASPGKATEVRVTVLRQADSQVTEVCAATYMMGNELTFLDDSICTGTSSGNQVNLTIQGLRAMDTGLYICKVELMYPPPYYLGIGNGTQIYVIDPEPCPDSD
The data set is described as follows: MST; Monolith NT.115; peptides first diluted to 400 μmol/L in MST buffer, 16 twofold dilutions; equal volumes of Red-NHS647 dye-labelled protein and peptide, room temperature 5 min, standard capillaries. The following applies: both partners purified.

Ends that are not written are not given here.

One may read the Kd as the constant that tells how readily two partners part at equilibrium.

Turning to ASANDNRLRYTY [LC6], the dissociation constant Kd in data set [1] is > 200 µM.

With HHLRIPYALDQT [LC2], in data set [1], the Kd was > 200 µM. Still for that read-out and setting: the value for RWKDTAYALTNN [LC1] was > 200 µM; that for SHRWQVWSRDRA [LC5] was > 200 µM. In the case of WGHSHFSHWKGR [LC4], the “effect on weight of mice (in words)” value in data set [2] (1 mg/kg/day or 4 mg/kg/day, peritumoral, 14 days, n = 5) is reported as “no significant effect on the weight of mice”. In addition, the “pathological changes in heart, liver, lung, kidney (H&E staining, in words)” value in data set [2] (mouse, in vivo) is given as “No obvious pathological changes”.

B1: LC7 (peptide)
peptide: LDRPSSLAHLAS
notes: 12-mer selected from the Ph.D.-12 phage display peptide library on hCTLA-4; source: synthetic peptide (solid phase Fmoc synthesis, RP-HPLC)
On to B1, for which the affinity in data set [3], expressed as Kd, was 2.14 ± 0.69 µM.

B2: LC3 (peptide)
peptide: SWHWHTHVRHQM
notes: as for B1
As for B2, in data set [3], the equilibrium dissociation constant (Kd) worked out at 0.04 ± 0.01 µM.

B3: LC8 (peptide)
peptide: RHHSSNPRDTAP
notes: as for B1
B3 showed a Kd in data set [3] of 8.82 ± 0.69 µM.

B4: LC4 (peptide)
peptide: WGHSHFSHWKGR
notes: 12-mer selected from the Ph.D.-12 phage display peptide library on hCTLA-4; also called LC4 peptide; source: synthetic peptide (solid phase Fmoc synthesis, RP-HPLC)
For the molecule B4, in data set [3], the Kd came out at 6.86 ± 2.63 µM.
